Results: patent US20050256134A1, “Use of creatine analogues and creatine kinase modulators for the prevention and treatment of glucose metabolic disorders” (AVICENA GROUP, INC., priority 1995, published 2005)

Tested on: terminal cancer patients
Test: Phase I/II open label dose escalation study, glucose levels, 3 hour continuous infusion
Format: in vivo, human
Method: Cyclocreatine was tested in humans in a phase I/II open label dose escalation study. […] Cyclocreatine was administered at doses that ranged from 10 mg/Kg to 100 mg/Kg. The schedule of administration of cyclocreatine is described in Table 4.
Cohorts of 3 patients were administered drug at each dose level, via a 3 hour continuous infusion in one liter volume of saline. The first week patients received cyclocreatine once, the second week patients received cyclocreatine twice, the third week three times, the fourth week four times, the fifth week five times. On weeks six and seven, no drug was administered to allow the drug to wash out. On week eight, cyclocreatine was given five times. The study included a total of 23 patients (18 male, 5 female) with a median age of 71 years (range 54-85). The patients had different types of malignancies. Eligibility requirements included patients who have failed standard therapy or for whom no therapy was available, normal organ function, have recovered from prior therapies, probability of survival of greater than three months. Reasons for exclusion included: major surgery, life threatening concurrent illness and CNS metastasis. Blood samples were collected at baseline and 1 day before and after the last weekly drug administration on days 1, 7, 9, 14, 17, 21, 25, 28, 33, 40, 47, 49, 54, 61, and 69. Glucose levels were determined for these collected blood samples. […] Not all patients experienced a significant drop in glucose although the trend was there. FIGS. 14 and 15 illustrate graphically individual patients' glucose levels upon treatment with 60 mg/Kg or 80 mg/Kg cyclocreatine. Patient (A) at the 80 mg/Kg dose was diabetic and had many serious complications due to their disease. […] It should be noted that an insufficient number of readings was made shortly after drug administration. It is interesting to note that several patients who were diabetic or had higher glucose levels than normal did respond to cyclocreatine, onen example being illustrated in FIG. 16.

## NC1=NCCN1CC(=O)O [cyclocreatine]
80 mg/Kg
  patients with significant hypoglycemia: 2 out of 3
100 mg/Kg
  patients with significant hypoglycemia: 2 out of 7
Ave, 40 mg/Kg, Study Day 0
  Glucose: 125 mg/dL
Ave, 40 mg/Kg, Study Day 1
  Glucose: 105 mg/dL
Ave, 40 mg/Kg, Study Day 7
  Glucose: 119 mg/dL
Ave, 40 mg/Kg, Study Day 9
  Glucose: 125 mg/dL
Ave, 40 mg/Kg, Study Day 14
  Glucose: 129 mg/dL
Ave, 40 mg/Kg, Study Day 17
  Glucose: 139 mg/dL
Ave, 40 mg/Kg, Study Day 21
  Glucose: 112 mg/dL
Ave, 40 mg/Kg, Study Day 25
  Glucose: 161 mg/dL
Ave, 40 mg/Kg, Study Day 28
  Glucose: 122 mg/dL
Ave, 40 mg/Kg, Study Day 33
  Glucose: 149 mg/dL
Ave, 40 mg/Kg, Study Day 40
  Glucose: 104 mg/dL
Ave, 40 mg/Kg, Study Day 47
  Glucose: 99 mg/dL
Ave, 40 mg/Kg, Study Day 49
  Glucose: 128 mg/dL
Ave, 40 mg/Kg, Study Day 54
  Glucose: 132 mg/dL
Ave, 40 mg/Kg, Study Day 61
  Glucose: 105 mg/dL
Ave, 40 mg/Kg, Study Day 69
  Glucose: 119 mg/dL
Ave, 60 mg/Kg, Study Day 7
  Glucose: 37 mg/dL
Patient 2, 7, 40 mg/Kg, Study Day 0
  Glucose: 115 mg/dL
Patient 2, 7, 40 mg/Kg, Study Day 1
  Glucose: 95 mg/dL
Patient 2, 7, 40 mg/Kg, Study Day 7
  Glucose: 153 mg/dL
Patient 2, 7, 40 mg/Kg, Study Day 9
  Glucose: 123 mg/dL
Patient 2, 7, 40 mg/Kg, Study Day 14
  Glucose: 102 mg/dL
Patient 2, 7, 40 mg/Kg, Study Day 17
  Glucose: 117 mg/dL
Patient 2, 7, 40 mg/Kg, Study Day 21
  Glucose: 104 mg/dL
Patient 2, 7, 40 mg/Kg, Study Day 25
  Glucose: 122 mg/dL
Patient 2, 7, 40 mg/Kg, Study Day 28
  Glucose: 154 mg/dL
Patient 2, 8, 40 mg/Kg, Study Day 0
  Glucose: 222 mg/dL
Patient 2, 8, 40 mg/Kg, Study Day 1
  Glucose: 116 mg/dL
Patient 2, 8, 40 mg/Kg, Study Day 9
  Glucose: 148 mg/dL
Patient 2, 8, 40 mg/Kg, Study Day 14
  Glucose: 184 mg/dL
Patient 2, 8, 40 mg/Kg, Study Day 17
  Glucose: 251 mg/dL
Patient 2, 8, 40 mg/Kg, Study Day 25
  Glucose: 278 mg/dL
Patient 2, 8, 40 mg/Kg, Study Day 33
  Glucose: 244 mg/dL
Patient 2, 8, 40 mg/Kg, Study Day 40
  Glucose: 139 mg/dL
Patient 2, 8, 40 mg/Kg, Study Day 49
  Glucose: 129 mg/dL
Patient 2, 8, 40 mg/Kg, Study Day 54
  Glucose: 195 mg/dL
Patient 2, 8, 40 mg/Kg, Study Day 69
  Glucose: 205 mg/dL
Patient 2, 9, 40 mg/Kg, Study Day 0
  Glucose: 98 mg/dL
Patient 2, 9, 40 mg/Kg, Study Day 1
  Glucose: 87 mg/dL
Patient 2, 9, 40 mg/Kg, Study Day 7
  Glucose: 117 mg/dL
Patient 2, 9, 40 mg/Kg, Study Day 9
  Glucose: 148 mg/dL
Patient 2, 9, 40 mg/Kg, Study Day 14
  Glucose: 126 mg/dL
Patient 2, 9, 40 mg/Kg, Study Day 17
  Glucose: 139 mg/dL
Patient 2, 9, 40 mg/Kg, Study Day 21
  Glucose: 90 mg/dL
Patient 2, 9, 40 mg/Kg, Study Day 25
  Glucose: 114 mg/dL
Patient 2, 9, 40 mg/Kg, Study Day 28
  Glucose: 87 mg/dL
Patient 2, 9, 40 mg/Kg, Study Day 33
  Glucose: 121 mg/dL
Patient 2, 9, 40 mg/Kg, Study Day 40
  Glucose: 92 mg/dL
Patient 2, 9, 40 mg/Kg, Study Day 47
  Glucose: 105 mg/dL
Patient 2, 9, 40 mg/Kg, Study Day 49
  Glucose: 132 mg/dL
Patient 2, 9, 40 mg/Kg, Study Day 54
  Glucose: 105 mg/dL
Patient 2, 9, 40 mg/Kg, Study Day 61
  Glucose: 104 mg/dL
Patient 2, 9, 40 mg/Kg, Study Day 69
  Glucose: 92 mg/dL
Patient 8, 40 mg/Kg, Study Day 0
  Glucose: 94 mg/dL
Patient 8, 40 mg/Kg, Study Day 1
  Glucose: 114 mg/dL
Patient 8, 40 mg/Kg, Study Day 7
  Glucose: 96 mg/dL
Patient 8, 40 mg/Kg, Study Day 9
  Glucose: 115 mg/dL
Patient 8, 40 mg/Kg, Study Day 14
  Glucose: 87 mg/dL
Patient 8, 40 mg/Kg, Study Day 17
  Glucose: 91 mg/dL
Patient 8, 40 mg/Kg, Study Day 21
  Glucose: 103 mg/dL
Patient 8, 40 mg/Kg, Study Day 25
  Glucose: 96 mg/dL
Patient 8, 40 mg/Kg, Study Day 28
  Glucose: 125 mg/dL
Patient 8, 40 mg/Kg, Study Day 33
  Glucose: 122 mg/dL
Patient 8, 40 mg/Kg, Study Day 40
  Glucose: 67 mg/dL
Patient 8, 40 mg/Kg, Study Day 47
  Glucose: 116 mg/dL
Patient 8, 40 mg/Kg, Study Day 49
  Glucose: 122 mg/dL
Patient 8, 40 mg/Kg, Study Day 54
  Glucose: 136 mg/dL
Patient 8, 40 mg/Kg, Study Day 61
  Glucose: 102 mg/dL
Patient 8, 40 mg/Kg, Study Day 69
  Glucose: 135 mg/dL
Patient 9, 40 mg/Kg, Study Day 0
  Glucose: 118 mg/dL
Patient 9, 40 mg/Kg, Study Day 1
  Glucose: 114 mg/dL
Patient 9, 40 mg/Kg, Study Day 7
  Glucose: 73 mg/dL
Patient 9, 40 mg/Kg, Study Day 9
  Glucose: 130 mg/dL
Patient 9, 40 mg/Kg, Study Day 14
  Glucose: 151 mg/dL
Patient 9, 40 mg/Kg, Study Day 17
  Glucose: 145 mg/dL
Patient 9, 40 mg/Kg, Study Day 21
  Glucose: 156 mg/dL
Patient 9, 40 mg/Kg, Study Day 25
  Glucose: 210 mg/dL
Patient 9, 40 mg/Kg, Study Day 28
  Glucose: 151 mg/dL
Patient 9, 40 mg/Kg, Study Day 33
  Glucose: 109 mg/dL
Patient 9, 40 mg/Kg, Study Day 40
  Glucose: 128 mg/dL
Patient 9, 40 mg/Kg, Study Day 47
  Glucose: 75 mg/dL
Patient 9, 40 mg/Kg, Study Day 54
  Glucose: 145 mg/dL
Patient 9, 40 mg/Kg, Study Day 61
  Glucose: 121 mg/dL
Patient 9, 40 mg/Kg, Study Day 69
  Glucose: 89 mg/dL
Patient 10, 40 mg/Kg, Study Day 0
  Glucose: 100 mg/dL
Patient 10, 40 mg/Kg, Study Day 7
  Glucose: 156 mg/dL
Patient 10, 40 mg/Kg, Study Day 9
  Glucose: 84 mg/dL
Patient 10, 40 mg/Kg, Study Day 14
  Glucose: 123 mg/dL
Patient 10, 40 mg/Kg, Study Day 17
  Glucose: 93 mg/dL
Patient 10, 40 mg/Kg, Study Day 21
  Glucose: 106 mg/dL
Patient 10, 40 mg/Kg, Study Day 25
  Glucose: 143 mg/dL
Patient 10, 40 mg/Kg, Study Day 28
  Glucose: 91 mg/dL
Patient 10, 40 mg/Kg, Study Day 40
  Glucose: 94 mg/dL
Patient 10, 40 mg/Kg, Study Day 47
  Glucose: 100 mg/dL
Patient 10, 40 mg/Kg, Study Day 54
  Glucose: 79 mg/dL
Patient 10, 40 mg/Kg, Study Day 61
  Glucose: 92 mg/dL
Patient 10, 40 mg/Kg, Study Day 69
  Glucose: 74 mg/dL
Patient 11, 60 mg/Kg, Study Day 7
  Glucose: 141 mg/dL
Patient 12, 60 mg/Kg, Study Day 7
  Glucose: 72 mg/dL
Patient 13, 60 mg/Kg, Study Day 7
  Glucose: 48 mg/dL
Patient (A), diabetic, 80 mg/Kg
  glucose response: did not seem to respond well
Highest tested drug concentrations (80 and 100 mg/Kg)
  clinical observation: became lethargic and hypoglycemic and required immediate intervention to revert glucose levels
Lower tested drug concentrations
  Glucose Levels: trend towards a drop in glucose levels shortly after drug administration
Several patients who were diabetic or had higher glucose levels than normal
  glucose response: did respond
